Source: patent US8188144B2, “In vitro preservation of living animal cells and compounds suitable for use in the preservation of living animal cells” (Antoxis Limited, priority 2007, dated 2012)

System: mouse embryonic stem cells
Test: MTT cell viability assay of tert-butyl hydroperoxide oxidative stress-induced cytotoxicity in mouse embryonic stem cells
Assay type: cell-based
Details: for viability at 0.1 µM / viability at 0.5 µM / viability at 1 µM: Mus musculus, Embryonic stem cell, read-out: Ave. Cell Viability (%)
Method: Oxidative stress and related free radical damage can be induced in cells, including stem cells, by exposing the cells to tert-butyl hydroperoxide in the incubation medium. Decomposition of the peroxide over a period of time leads to a steady generation of reactive oxygen species. This in turn triggers a cascade of free radical-mediated events that eventually leads to irreversible damage and ultimately cell death as the natural antioxidant defences are overwhelmed.
The extent of cytotoxicity induced by peroxide exposure can be quantified using a number of well-documented assays, including the MTT protocol. This is a colorometric assay that measures the reduction of MTT to formazan, a process that can only occur when cells are viable. Thus, by comparing the amount of formazan produced in control cells, against cells treated with a cytotoxic agent, such as tert-butyl hydroperoxide, the reduction in cell viability induced by the agent can be measured.
The assay can be further extended to determine the effectiveness of compounds to provide protection against cytotoxic agents. In the case of the novel antioxidants, the subject of this patent, this can be achieved by pre-incubation of the cells with the antioxidant agent prior to induction of oxidative stress by tert-butyl hydroperoxide. Thus a comparison of the amount of formazan produced by control cells against cells with the cytotoxic peroxide present, plus or minus pre-incubation with the novel antioxidant, can determine the extent by which the compound can retain cell viability.
A 96-well plate was seeded with approximately 20,000 mouse embryonic stem cells per well and left to grow at 37° C. (5% CO2) overnight. Antioxidants, denoted as Exp.1, Exp.2 and Exp.3, were dissolved in DMSO and added to the wells in triplicate 30 min before induction of oxidative stress with tert-butyl hydroperoxide. The resultant concentrations of the tested antioxidants in the wells were 0.1, 0.5 and 1 μM. Controls were also initiated using cell medium (DMEM^+)/DMSO. After the 30 min pre-incubation period, tert-butyl peroxide was added to the wells to provide a final concentration of 400 μM. The plated cells were returned to the incubator (37° C.) for 90 min. After this period, 20 μL of the MTT reagent solution was added to all of the wells. The plate was then further incubated for a further 3 hours. The supernatant was removed from the wells and 200 μl DMSO added to all wells to solubilise reduced MTT (formazan). The plate was protected from light and shaken for 10 min. The supernatant was removed from the wells and aliquoted into a new 96-well plate for the colorometric measurements. Absorbance was determined at 540 nm.
The average corrected absorbance. (0.737) for the DMEM^+ control (which contained no antioxidant compounds or tert-butyl hydroperoxide) represented the 100% viability benchmark. Comparison of the corrected absorbances in the various well treatment regimes relative to that of the DMEM^+ control enabled the resultant effects on cell viability to be calculated. tBHP=tert-butyl hydroperoxide.

| Compound | Ave. Cell Viability (%) (400 μM tBHP alone, no antioxidant, 90 min, relative to DMEM+ control = 100%) | Ave. Cell Viability (%) (400 μM tBHP alone, no antioxidant, 90 min, relative to DMEM+ control = 100%, listed as tert-butyl hydroperoxide) | viability at 0.1 µM | viability at 0.5 µM | viability at 1 µM | Ave. Cell Viability (%) (mouse, 120 min, 1 μM) |
| --- | --- | --- | --- | --- | --- | --- |
| CC(C)(C)OO [tBHP, tert-butyl hydroperoxide, reference compound] | 37.0% | 37% |  |  |  |  |
| CCCCCCCCc1cc(=O)c(O)c(-c2cc(O)c(O)c(O)c2)o1 [Exp.3] |  |  | 34.4% | 55.5% | 70.4% |  |
| CCCCCCCCCCCCc1cc(=O)c(O)c(-c2cc(O)c(O)c(O)c2)o1 [Exp.2] |  |  | 60.5% | 94.8% | 96.9% | 104.1% |
| CCCCCCCCCCc1ccc2c(=O)c(O)c(-c3cc(O)c(O)c(O)c3)oc2c1 [Exp.1] |  |  | 56.9% | 86.5% | 84.8% | 107.4% |
